Assay results: patent publication US10285936B2, “Injectable composition with aromatase inhibitor” (Laboratorios Farmacéuticos Rovi, S.A., priority 2010, dated 2019)
Like-named read-outs stand apart in the source and are kept apart here.

Assays:
[1] = Letrozole particle size distribution by laser diffraction (Malvern Mastersizer 2000); format: physicochemical; conditions: % volume; suspended in water until obscuration of 9.41%
Protocol: If not otherwise specified, the particle size distribution was determined by light scattering technique using laser light diffraction in wet mode. It is known that particle size distribution results can be altered as a function of the material treatment such the use of high concentrate surfactant agents and/or strong force energies (vortex, sonication, etc). If nothing else is mentioned, drug is not treated and samples are prepared by direct addition to the tank under moderate stirring (2000-3500 rpm). The methodology applied on present invention to determine the drug particle size distribution mimics in a more faithfully way the behavior of the drug powder on the injectable formulation herein described than other methods which apply force energies to the sample and/or use high concentrate surfactant agents for preparing the samples in order to achieve high degrees of powder disaggregation that cannot be simulated during the manual reconstitution process of the formulation.
Letrozole particle size in formulation 2 was characterized by the technique of laser ray diffraction (Malvern Mastersizer 2000, suspended in water until obscuration of 9.41%) and had the following distribution (in % volume): d(0.1)=38.21 μm, d(0.5)=141.35 μm and d(0.9)=312.13 μm.

[2] = format: in vitro ADME; conditions: for stability of samples at room temperature: 6 h; for storage of processed samples without change in precision and accuracy: 24 h; for long term stability of samples: 132 days
Protocol: For quantification of letrozole in dog and rabbit plasma a technique based on high performance liquid chromatography with fluorescence detector HPLC-FLD […] using a liquid-liquid extraction with […] as the organic solvent and resuspension for analysis in reverse phase with isocratic elution. Carvedilol was used as the internal standard and the process time was 8.5 min with a letrozole retention time of 7.8 min and applying wavelengths of 240 nm (λ excitation) and 315 nm (λ emission). The validated concentration interval was from 5 (LLOQ) to 500 ng/mL, that is with a lower limit of quantification or minimum quantifiable analyte concentration of the analytical technique of 5 ng/mL and a maximum validated concentration of 500 ng/mL. Calibration curves obtained were characterized with a correlation coefficient of over 0.99. Precision and intra-assay and inter-assay accuracy was less than 20% for the LLOQ and less than 15% for the other QCs, that is, of the other known concentration samples used as quality controls in conducting the analysis. The bioanalytical method was validated over three days and the results met the acceptance criteria described in the FDA guide: “Bioanalytical Method Validation”.
Processed samples could be stored in the sampler at 4° C. for 24 hours without noticing any change in the precision and accuracy of the analysis.

SMILES: N#Cc1ccc(C(c2ccc(C#N)cc2)n2cncn2)cc1 [Letrozole, 4,4′-(1,2,4-triazol-1-ylmethyl)dibenzonitrile]
- d(0.1) [1]: 38.21 μm
- d(0.5) [1]: 141.35 μm
- d(0.9) [1]: 312.13 μm
- effect of cycles of freezing/thawing on stability ([2]; dog): did not affect the stability
- stability of samples at room temperature ([2]; dog): up to 6 hours
- storage of processed samples without change in precision and accuracy ([2]; dog): 24 h
- long term stability of samples ([2]; dog): 132 days
- effect of cycles of freezing/thawing on stability ([2]; rabbit): did not affect the stability
- stability of samples at room temperature ([2]; rabbit): up to 6 hours
- storage of processed samples without change in precision and accuracy ([2]; rabbit): 24 h
- long term stability of samples ([2]; rabbit): 132 days
